We go through 29 compounds from patent US10035790B2, “RORγ modulators” (BRISTOL-MYERS SQUIBB COMPANY, priority 2012, dated 2018).

The pIC50 is −log10 of the IC50, conventionally taken in molar units.

pIC50: −log10 of the molar value.

This assay has as its target T1, ligand binding domain of human RORγ (A262-S507) (Homo sapiens, UniProt P51449).
T1 construct: made in house; host or cells: E. coli
T1 sequence (P51449 262-507): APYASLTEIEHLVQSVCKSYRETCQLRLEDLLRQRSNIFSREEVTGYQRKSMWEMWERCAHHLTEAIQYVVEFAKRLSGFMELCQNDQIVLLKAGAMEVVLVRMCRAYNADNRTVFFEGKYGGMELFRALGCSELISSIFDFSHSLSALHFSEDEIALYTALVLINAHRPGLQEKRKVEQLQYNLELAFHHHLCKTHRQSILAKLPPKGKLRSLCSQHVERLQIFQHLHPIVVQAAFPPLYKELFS
The assay can be described thus: General RORγ SPA binding assay (competition with [3H]25-hydroxycholesterol). The settings on record: RORγ SPA binding assay, inhibition of [3H]25-hydroxycholesterol binding; read-out: IC50. Summed up:
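N-terminally His-tagged protein was expressed in E. coli and nickel-purified. Then 50 nM protein was preincubated with compound for 15 min at room temperature in PBS with 0.5% fatty acid free BSA, followed by radioligand for 15 min and copper His-tag SPA beads for 30 min. IC50 came from percent inhibition of binding.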
As to `Cc1cccc(CNC(=O)c2cnc(C)nc2C2CCN(C(=O)Cc3c(F)cccc3F)CC2)c1` [Compound A60, 4-(1-(2-(2,6-difluorophenyl)acetyl)piperidin-4-yl)-2-methyl-N-(3-methylbenzyl)pyrimidine-5-carboxamide], the negative-log IC50 (pIC50) is 7.46.

Take `Cc1nc(C)c(C(=O)NCc2ccnc(C(F)(F)F)c2)c(C2CCN(C(=O)Cc3c(F)cccc3F)CC2)n1` [Compound A61, 4-(1-(2-(2,6-difluorophenyl)acetyl)piperidin-4-yl)-2,6-dimethyl-N-((2-(trifluoromethyl)pyridin-4-yl)methyl)pyrimidine-5-carboxamide]: the pIC50 is 7.42.

`Cc1ncc(C(=O)NCc2ccc(Cl)cc2)c(C2CCN(C(=O)Cc3c(F)cccc3F)CC2)n1` [Compound A62, N-(4-chlorobenzyl)-4-(1-(2-(2,6-difluorophenyl)acetyl)piperidin-4-yl)-2-methylpyrimidine-5-carboxamide]: the pIC50 is 7.36.

With `Cc1ncc(C(=O)NCc2cccc(Cl)c2C)c(C2CCN(C(=O)Cc3c(F)cccc3F)CC2)n1` [Compound A63, N-(3-chloro-2-methylbenzyl)-4-(1-(2-(2,6-difluorophenyl)acetyl)piperidin-4-yl)-2-methylpyrimidine-5-carboxamide], the pIC50 was 7.20.

Take `CCc1ncc(C(=O)NCc2cc(C)cc(C)c2)c(C2CCN(C(=O)Cc3c(F)cccc3F)CC2)n1` [Compound A64, 4-(1-(2-(2,6-difluorophenyl)acetyl)piperidin-4-yl)-N-(3,5-dimethylbenzyl)-2-ethylpyrimidine-5-carboxamide]: the negative logarithm of the IC50 (pIC50) was 7.19.

`O=C(NCc1ccc(Cl)c(Cl)c1)c1cncnc1C1CCN(C(=O)Cc2c(Cl)cccc2Cl)CC1` [Compound A65, N-(3,4-dichlorobenzyl)-4-(1-(2-(2,6-dichlorophenyl)acetyl)piperidin-4-yl)pyrimidine-5-carboxamide]: the pIC50 was 7.16.

In the case of `Cc1ncc(C(=O)NCc2cc(C(F)(F)F)ccn2)c(C2CCN(C(=O)Cc3c(F)cccc3F)CC2)n1` [Compound A66, 4-(1-(2-(2,6-difluorophenyl)acetyl)piperidin-4-yl)-2-methyl-N-((4-(trifluoromethyl)pyridin-2-yl)methyl)pyrimidine-5-carboxamide], the pIC50 was 7.14.

On to `Cc1cc(C(F)(F)F)nc(CNC(=O)c2cnc(C)nc2C2CCN(C(=O)Cc3c(F)cccc3F)CC2)n1` [Compound A67, 4-(1-(2-(2,6-difluorophenyl)acetyl)piperidin-4-yl)-2-methyl-N-((4-methyl-6-(trifluoromethyl)pyrimidin-2-yl)methyl)pyrimidine-5-carboxamide], for which the pIC50 was 7.07.

For the compound `O=C(NCc1ccc(Cl)c(Cl)c1)c1cncnc1C1CCN(C(=O)Cc2c(F)ccc(F)c2F)CC1` [Compound A68, N-(3,4-dichlorobenzyl)-4-(1-(2-(2,3,6-trifluorophenyl)acetyl)piperidin-4-yl)pyrimidine-5-carboxamide], the pIC50 was 7.02.

For `Cc1ncc(C(=O)NCc2ccccc2)c(C2CCN(C(=O)Cc3c(F)cccc3F)CC2)n1` [Compound A69, N-benzyl-4-(1-(2-(2,6-difluorophenyl)acetyl)piperidin-4-yl)-2-methylpyrimidine-5-carboxamide], the negative logarithm of the IC50 (pIC50) was 6.84.

As for `Cc1cc(CNC(=O)c2cnc(C)nc2C2CCN(C(=O)Cc3c(F)cccc3F)CC2)ccn1` [Compound A70, 4-(1-(2-(2,6-difluorophenyl)acetyl)piperidin-4-yl)-2-methyl-N-((2-methylpyridin-4-yl)methyl)pyrimidine-5-carboxamide], the negative logarithm of the IC50 (pIC50) is 6.67.

On to `Cc1ncc(C(=O)NCc2ccc(Cl)nc2)c(C2CCN(C(=O)Cc3c(F)cccc3F)CC2)n1` [Compound A71, N-((6-chloropyridin-3-yl)methyl)-4-(1-(2-(2,6-difluorophenyl)acetyl)piperidin-4-yl)-2-methylpyrimidine-5-carboxamide], for which the pIC50 was 6.62.

`Cc1ncc(C(=O)NCc2cnc(Cl)s2)c(C2CCN(C(=O)Cc3c(F)cccc3F)CC2)n1` [Compound A72, N-((2-chlorothiazol-5-yl)methyl)-4-(1-(2-(2,6-difluorophenyl)acetyl)piperidin-4-yl)-2-methylpyrimidine-5-carboxamide]: the pIC50 is 6.50.

Turning to `Cc1cc(CNC(=O)c2cnc(C)nc2C2CCN(C(=O)Cc3c(F)cccc3F)CC2)cc(C)n1` [Compound A73, 4-(1-(2-(2,6-difluorophenyl)acetyl)piperidin-4-yl)-N-((2,6-dimethylpyridin-4-yl)methyl)-2-methylpyrimidine-5-carboxamide], the pIC50 is 6.37.

With `Cc1ncc(C(=O)NCc2ccc(C(F)(F)F)nc2)c(C2CCN(C(=O)Cc3c(F)cccc3F)CC2)n1` [Compound A74, 4-(1-(2-(2,6-difluorophenyl)acetyl)piperidin-4-yl)-2-methyl-N-((6-(trifluoromethyl)pyridin-3-yl)methyl)pyrimidine-5-carboxamide], the pIC50 is 6.21.

As for `COC(=O)C(NC(=O)c1cnc(C)nc1C1CCN(C(=O)Cc2c(F)cccc2F)CC1)c1cccc(Cl)c1` (centres unmarked) [Compound A75, methyl 2-(3-chlorophenyl)-2-(4-(1-(2-(2,6-difluorophenyl)acetyl)piperidin-4-yl)-2-methylpyrimidine-5-carboxamido)acetate], the pIC50 is 6.12.

In the case of `Cc1ncc(C(=O)NC(C)c2cccc(Cl)c2)c(C2CCN(C(=O)Cc3c(F)cccc3F)CC2)n1` (centres unmarked) [Compound A76, N-(1-(3-chlorophenyl)ethyl)-4-(1-(2-(2,6-difluorophenyl)acetyl)piperidin-4-yl)-2-methylpyrimidine-5-carboxamide], the negative logarithm of the IC50 (pIC50) is 5.95.

As for `CCNC(=O)c1cc(CNC(=O)c2cnc(C)nc2C2CCN(C(=O)Cc3c(F)cccc3F)CC2)ccn1` [Compound A77, 4-(1-(2-(2,6-difluorophenyl)acetyl)piperidin-4-yl)-N-((2-(ethylcarbamoyl)pyridin-4-yl)methyl)-2-methylpyrimidine-5-carboxamide], the pIC50 is 5.87.

Take `Cc1ncc(C(=O)NCc2cc(C)n(C)n2)c(C2CCN(C(=O)Cc3c(F)cccc3F)CC2)n1` [Compound A78, 4-(1-(2-(2,6-difluorophenyl)acetyl)piperidin-4-yl)-N-((1,5-dimethyl-1H-pyrazol-3-yl)methyl)-2-methylpyrimidine-5-carboxamide]: the pIC50 was 5.75.

As for `Cc1cnc(CNC(=O)c2cnc(C)nc2C2CCN(C(=O)Cc3c(F)cccc3F)CC2)cn1` [Compound A79, 4-(1-(2-(2,6-difluorophenyl)acetyl)piperidin-4-yl)-2-methyl-N-((5-methylpyrazin-2-yl)methyl) pyrimidine-5-carboxamide], the pIC50 is 5.28.

With `Cc1cc(C)cc(CNC(=O)c2c(C)nc(C)nc2C2CCN(C(=O)Cc3c(F)cccc3F)CC2)c1` [Compound A80, 4-(1-(2-(2,6-difluorophenyl)acetyl)piperidin-4-yl)-N-(3,5-dimethylbenzyl)-2,6-dimethylpyrimidine-5-carboxamide], the pIC50 is 8.01.

For `Cc1nc(C)c(C(=O)NCc2cccc(Cl)c2)c(C2CCN(C(=O)Cc3c(F)cccc3F)CC2)n1` [Compound A81], the negative-log IC50 (pIC50) is 8.28.

As for `Cc1nc(C)c(C(=O)NCc2cccc(C(F)(F)F)n2)c(C2CCN(C(=O)Cc3c(F)cccc3F)CC2)n1` [Compound A82, 4-(1-(2-(2,6-difluorophenyl)acetyl)piperidin-4-yl)-2,6-dimethyl-N-((6-(trifluoromethyl)pyridin-2-yl)methyl)pyrimidine-5-carboxamide], the negative logarithm of the IC50 (pIC50) is 8.21.

`Cc1nc(C)c(C(=O)NCc2ccnc(C#N)c2)c(C2CCN(C(=O)Cc3c(F)cccc3F)CC2)n1` [Compound A83, N-((2-cyanopyridin-4-yl)methyl)-4-(1-(2-(2,6-difluorophenyl)acetyl)piperidin-4-yl)-2,6-dimethylpyrimidine-5-carboxamide]: the pIC50 is 7.34.

For `Cc1cc(C)cc(CNC(=O)c2c(C(C)C)nc(C)nc2C2CCN(C(=O)Cc3c(F)cccc3F)CC2)c1` [Compound A84, 4-(1-(2-(2,6-difluorophenyl)acetyl)piperidin-4-yl)-N-(3,5-dimethylbenzyl)-6-isopropyl-2-methylpyrimidine-5-carboxamide], the pIC50 was 5.78.

For `CSc1ncc(C(=O)NCc2ccc(Cl)c(Cl)c2)c(C2CCN(C(=O)Cc3c(F)cccc3F)CC2)n1` [Compound A85, N-(3,4-dichlorobenzyl)-4-(1-(2-(2,6-difluorophenyl)acetyl)piperidin-4-yl)-2-(methylthio)pyrimidine-5-carboxamide], the pIC50 is 7.36.

As to `COc1ncc(C(=O)NCc2ccc(Cl)c(Cl)c2)c(C2CCN(C(=O)Cc3c(F)cccc3F)CC2)n1` [Compound A86, N-(3,4-dichlorobenzyl)-4-(1-(2-(2,6-difluorophenyl)acetyl)piperidin-4-yl)-2-methoxypyrimidine-5-carboxamide], the pIC50 is 8.15.

As to `O=C(NCc1cccc(Cl)c1)c1cnc(NCCO)nc1C1CCN(C(=O)Cc2c(F)cccc2F)CC1` [Compound A87, N-(3-chlorobenzyl)-4-(1-(2-(2,6-difluorophenyl)acetyl)piperidin-4-yl)-2-((2-hydroxyethyl)amino)pyrimidine-5-carboxamide], the pIC50 was 8.77.

Take `CN(C)c1ncc(C(=O)NCc2cccc(Cl)c2)c(C2CCN(C(=O)Cc3c(F)cccc3F)CC2)n1` [Compound A88, N-(3-chlorobenzl)-4-(1-(2-(2,6-difluorophenyl)acetyl)piperidin-4-yl)-2-(dimethylamino)pyrimidine-5-carboxamide]: the pIC50 was 8.27.
